Each block holds one molecule with its values, some of them ahead of it.
Key:
Tissue distribution = format: in vivo, SD rats
Procedure: 18 of SD rats were fasting for 16 h with free access for water, assigned them into 3 groups with 6 animals/group with a female-to-male ratio of 1:1; they were dosed with HS060098 (10 mg/kg), then the animals were sacrificed at 1, 10, and 24 h after dosing, and the heart, liver, spleen, lung, kidney in each animal were removed rapidly. The tainted blood on the surface of the organ was washed off immediately with physiological saline. The tissue from the organ was dissected apart, washed thoroughly, blotted off, weighed, supplemented with physiological saline at 400 mg/ml, homogenized in an ice bath for 1 min, and centrifuged at 3750 rpm for 20 min. 400 μl of the supernatant was pipetted precisely, followed by addition of 40 μl of an inner standard (HS060001 used as the inner standard with a molar concentration of 5 mmol/L), diluted with 3 ml of purified water, vortexed to homogeneity, and loaded onto a column (SPE C18 column was firstly washed with 3 ml of purified water, and sequentially with 3 ml of 10% methanol for activation). The column was rinsed with 3 ml of purified water at 1 ml/min, and then eluted with 3 ml of a elutant (methanol: purified water=9:1). The eluate was collected and blow-dried under a nitrogen flow at 45° C. The residue was dissolved in 400 μl of acetonitrile and then a HPLC insert was placed and followed by injection of the sample.

PPARδ = biological target: T1, PPARδ (Homo sapiens, UniProt Q03181); test: In vitro screening of nuclear receptor agonist: luciferase reporter gene assay in HepG2 cells; format: cell-based; settings: RXR/PPARδ luciferase reporter gene, 24 h treatment
T1 construct: expressed in transfected cells; host or cells: HepG2 (human hepatocarcinoma, ATCC)
T1 sequence (Q03181 1-441): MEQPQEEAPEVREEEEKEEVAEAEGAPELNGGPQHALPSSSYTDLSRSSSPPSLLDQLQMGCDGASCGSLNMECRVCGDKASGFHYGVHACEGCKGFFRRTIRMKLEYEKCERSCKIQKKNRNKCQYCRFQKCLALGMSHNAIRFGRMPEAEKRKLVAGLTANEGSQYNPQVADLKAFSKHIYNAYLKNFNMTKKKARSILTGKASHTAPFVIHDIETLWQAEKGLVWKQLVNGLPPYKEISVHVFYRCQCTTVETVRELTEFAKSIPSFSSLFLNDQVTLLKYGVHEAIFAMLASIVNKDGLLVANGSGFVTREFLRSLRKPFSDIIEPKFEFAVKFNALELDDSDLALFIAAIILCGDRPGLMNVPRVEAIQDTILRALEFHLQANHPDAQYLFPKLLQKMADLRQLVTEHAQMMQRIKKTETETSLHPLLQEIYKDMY
T1 sequence (P19793 1-462 partner): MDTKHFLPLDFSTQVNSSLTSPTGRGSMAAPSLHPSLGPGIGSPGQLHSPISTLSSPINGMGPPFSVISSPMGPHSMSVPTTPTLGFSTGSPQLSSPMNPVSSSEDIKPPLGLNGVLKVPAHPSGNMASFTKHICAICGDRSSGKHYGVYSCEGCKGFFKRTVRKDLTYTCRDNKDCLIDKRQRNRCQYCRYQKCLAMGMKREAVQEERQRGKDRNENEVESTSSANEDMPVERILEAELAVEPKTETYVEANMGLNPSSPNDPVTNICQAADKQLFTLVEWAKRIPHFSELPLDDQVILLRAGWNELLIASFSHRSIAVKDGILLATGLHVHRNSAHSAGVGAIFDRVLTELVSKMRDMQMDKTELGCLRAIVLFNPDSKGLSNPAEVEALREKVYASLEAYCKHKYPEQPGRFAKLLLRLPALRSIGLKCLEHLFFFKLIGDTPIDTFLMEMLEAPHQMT
Excerpt: Using a reporter gene protocol, the screening model for screening a nuclear receptor agonist in a living cell is designed on a basis of the principal that an activated nuclear receptor can activate transcription of its downstream gene. A reporter gene plasmid is constructed, in which the DNA binding sequence for the nuclear receptor (NRE) is inserted upstream of the luciferase gene, so that the expression of the luciferase gene is placed under the control of the nuclear receptor. Then, the reporter gene plasmid and the nuclear receptor are simultaneously transferred into a cell, and the nuclear receptor is activated when the nuclear receptor agonist is present in the cell culture medium. Then the activated receptor is able to induce the expression of the luciferase gene, while the amount of the luciferase can be determined through its luminous substrate. In this way, the intensity of activation by the compound on the nuclear receptor could be known by observing the luminescence intensity.
The specific operation is described as follows:
The experiment reagents: the compounds to be tested (20 mM, in DMSO, stored at −80° C.).
The hepatocarcinoma cell HepG2 (from ATCC, American Type Culture Collection) was cultured in DMEM medium supplemented with 10% heat-inactivated fetal bovine serum (FBS, Invitogen, Grand Island, N.Y., USA) in a T-75 culture bottle (Greiner, Germany) in a incubator at 37° C., the relative humidity of 100%, and 5% CO2. When the cell culture in the culture bottle reached 80-90% confluency, it was digested with 0.25% Trypsin (with EDTA) for 3 min and inoculated into a 96-well cell culture plate at an inoculating density of 2000 cells/100 μl/well.
In the next day, when the cells in the 96-well culture plate grew up to 50-80% confluency, cell transfection was performed. The cell co-transfection system comprised the FuGene6 transfection agent (Roche Molecular Biochemicals, Indianapolis, Ind., U.S.A.) and 60 ng DNA (long of hRXR, 10 ng of pCMV βGal, 10 ng of the nuclear receptor expression plasmid RXR/PPARδ, 30 ng of GFP fluorescence reporter gene plasmid, respectively).
The cell culture medium was discarded immediately at 24 hours post-transfection and replaced by 200 μl of a fresh DMEM medium containing the medicament to be tested (with 10% FBS treated by activated carbon).
24 h after treatment with the medicament, the cells were lysed with a lysis solution (Cell Culture Lysis buffer, Promega) and centrifuged, and the supernatant was collected. The supernatant was treated with a fluorescence detection kit (Promega) and counted by a fluorescence meter (Ascent Fluoroskan FL reader, Thermo Labsystems, Finland), and the relative intensity of the luciferase was determined. For assaying the β-galactosidase activity used in the experiment as the inner reference (the inner reference calibrating for the transfection efficiency), 50 μl of the supernatant was transferred into a fresh microplate and treated with the Promega kit and read at a wavelength of 405 nm from a microplate reader (Bio-tech Instruments Inc., Winooski, Vt., USA) (Sauerberg, P.; Olsen, G. S.; Jeppesen, L.; Mogensen, J. P. et al., J. Med. Chem., 2007, 50, 1495-1503).
The median effective concentration (EC50) of a sample is a concentration at which the sample has 50% pharmacological effect. This value is one of the important parameters for evaluating pharmacological effects of a compound. In the present screening process, the EC50 of a sample was calculated according to the activation of the receptor by the sample at six different concentrations.

[1] = Pharmacokinetics: plasma concentration-time curve; format: in vivo; settings: both sexes, rat, plasma, oral, SD rats, gastric lavage, 50, 10 and 2 mg/kg
Procedure: The dosing volume was 10 ml/kg, and blood samples of 0.4-0.5 ml were taken from the vena orbitalis posterior of the waken animals at different time points post-gastric lavage and centrifuged at 5000 rpm for 10 min. 200 μL of plasma sample was precisely measured, then supplemented with 200 μL acetonitrile, vortexed to evenness, left stand for 5 min, and centrifuged (14000 rpm, 5 min). The supernatant was collected and then centrifuged again (14000 rpm, 5 min). The resulting supernatant was gathered and subjected to HPLC injection. Time points for blood sampling were respectively: 0, 0.5, 1, 2, 4, 6, 8, 10, 12, 24, 36, 48 and 72 h, and the peak area for each time point was the average of those obtained from 6 rats at the same time point. Plasma concentrations were calculated and the medicament concentration-time curve was plotted.

[2] = clinical research, Oliver et al. 2001; cited from earlier work
[3] = distribution in organs, SD rats, 10 mg/kg

- Heart (Tissue distribution; [3]): 6%
- Kidney (Tissue distribution; [3]): 9%
- Liver (Tissue distribution; [3]): 65%
- Lung (Tissue distribution; [3]): 11%
- Spleen (Tissue distribution; [3]): 9%
- tissue distribution (Tissue distribution; in words): distribute mainly in liver
- EC50 (PPARδ): 468 nM
- half-life [1]: 26 to 28 h
- bioavailability ([1]; read-out: bioavailability): 15%
Structure (SMILES): Cc1cc(OC(c2ccccc2)c2nn(-c3ccc(C(F)(F)F)cc3)c(=O)n2C)ccc1OCC(=O)O (centres unmarked) [Compound A-1, 2-(2-methyl-4-(1-(3-(4-methyl-5-oxo-1-(4-trifluoromethyl-phenyl)-4,5-dihydrogen-1H-1,2,4-triazolyl))-benzyloxy)-phenoxy)-acetic acid]

- EC50 (PPARδ): 1 nM
Structure (SMILES): Cc1cc(SC(c2ccccc2)c2nn(-c3ccc(C(F)(F)F)cc3)c(=O)n2C)ccc1OC(C)(C)C(=O)O (centres unmarked) [Compound A-16, 2,2-dimethyl-2-(2-methyl-4-(1-(3-(4-methyl-5-oxo-1-(4-trifluoromethyl-phenyl)-4,5-dihydrogen-1H-1,2,4-triazolyl))-benzylthio)-phenoxy)-acetic acid]

- EC50 (PPARδ): < 1 nM
Structure (SMILES): CCCCn1c(C(Oc2ccc(SCC(=O)O)cc2C)c2ccccc2)nn(-c2ccc(C(F)(F)F)cc2)c1=O (centres unmarked) [Compound A-17, 2-(3-methyl-4-(1-(3-(4-n-butyl-5-oxo-1-(4-trifluoromethyl-phenyl)-4,5-dihydrogen-1H-1,2,4-triazolyl))-benzyloxy)-phenylthio)-acetic acid]

- EC50 (PPARδ): < 1 nM
Structure (SMILES): CCCCn1c(C(Sc2ccc(OC(C)(C)C(=O)O)c(C)c2)c2ccccc2)nn(-c2ccc(C(F)(F)F)cc2)c1=O (centres unmarked) [Compound A-18]

- EC50 (PPARδ): < 1 nM
Structure (SMILES): CCCCn1c(C(Sc2cc(C)c(OCC(=O)O)cc2C)c2ccccc2)nn(-c2ccc(C(F)(F)F)cc2)c1=O (centres unmarked) [Compound A-19, 2-(2,5-dimethyl-4-(1-(3-(4-n-butyl-5-oxo-1-(4-trifluoromethyl-phenyl)-4,5-dihydrogen-1H-1,2,4-triazolyl))-benzylthio)-phenoxy)-acetic acid]

Structure (SMILES): Cc1cc(SCc2sc(-c3ccc(C(F)(F)F)cc3)nc2C)ccc1OCC(=O)O [GW501516]
- decrease the level of insulin [2]: up to 48%
- decrease the level of triglyceride (TG) [2]: up to 56%
- increase the level of high density lipoprotein (HDL) cholesterol [2]: up to 80%
- lower the level of low density lipoprotein (LDL) cholesterol [2]: up to 29%
